Laboratory results reported in patent publication US4410516A, “1-N(αHydroxy-ω-aminoalkanoyl) derivatives of 5,3',4'-trideoxy- or 5,3', 4'-trideoxy-6'-N- methyl- or 5, 3', 4',6"-tetradeoxykannamyci B and production thereof” (Zaidan Hojin Biseibutsu Kagaku Kenkyu Kai, priority 1981, dated 1983).
Values after ≈ are worked out from the molar mass of the structure shown. Like-named read-outs stand apart in the source and are kept apart here.

What was measured:
[1] = test system: Pseudomonas aeruginosa 21-75; experiment: Minimum inhibitory concentration, serial dilution on nutrient agar; assay type: cell-based; conditions: 2175, 37° C., 18 hours incubation
[2] = test system: Pseudomonas maltophilia GN907; experiment: as above; assay type: cell-based; conditions: Stenotrophomonas maltophilia, 37° C., 18 hours incubation
[3] = test system: Shigella flexneri 4b JS11811; experiment: as above; assay type: cell-based; conditions: 4BJS11811, 37° C., 18 hours incubation
From the text: (§1) The minimum inhibitory concentration (mcg/ml) of 1-N-[(S)-4-amino-2-hydroxybutyryl]-5,3',4'-trideoxykanamycin B (abbreviated as AHB-trideoxyKMB), 1-N-[(RS)-3-amino-2-hydroxypropionyl]-5,3',4'-trideoxykanamycin B (abbreviated as AHP-trideoxy-KMB) and 1-N-[(S)-4-amino-2-hydroxybutyryl]-5,3',4',6"-tetradeoxykanamycin B (abbreviated as AHB-tetradeoxyKMB) of the formula (II) according to this invention as well as of the new compound 5,3',4',6"-tetradeoxykanamycin B (abbreviated as tetradeoxyKMB) of the formula (III) according to this invention against various microorganisms were determined according to serial dilution method on a nutrient agar medium at 37° C., the estimation being made after 18 hours incubation. For comparison purpose, the minimum inhibitory concentrations of habekacin were also determined in the same manner as stated above.
(§2) The minimum inhibitory concentrations (mcg/ml) of 1-N-[(S)-4-amino-2-hydroxybutyryl]-5,3',4'-trideoxy-6'-N-methylkanamycin B (abbreviated as AHB-trideoxyMKMB), 1-N-[(RS)-3-amino-2-hydroxypropionyl]-5,3',4'-trideoxy-6'-N-methylkanamycin B (abbreviated as AHP-trideoxyMKMB) and 1-N-[(S)-5-amino-2-hydroxyvaleryl]-5,3',4'-trideoxy-6'-N-methylkanamycin B (abbreviated as AHV-trideoxyMKMB) of the formula (IV) according to this invention as well as of the new compound 5,3',4'-trideoxy-6'-N-methylkanamycin B (abbreviated as trideoxyMKMB) of the formula (V) according to this invention against various microorganisms were determined according to serial dilution method on a nutrient agar medium at 37° C., the estimation being made after 18 hours incubation. For comparison purpose, the minimum inhibitory concentrations of 1-N-[(S)-4-amino-2-hydroxybutyryl]-3',4'-dideoxykanamycin B (ie. habekacin) were also determined in the same manner as stated above.

[4] = test system: Escherichia coli K-12 ML 1630; experiment: as above; assay type: cell-based; conditions: K12ML1630, 37° C., 18 hours incubation
From the text: as §1, §2

[5] = test system: Escherichia coli K-12 C 600R/35; experiment: as above; assay type: cell-based; conditions: K12C600R/35, 37° C., 18 hours incubation
From the text: as §1, §2

Shigella sonnei JS11746 = experiment: as above; assay type: cell-based; conditions: 37° C., 18 hours incubation
From the text: as §1, §2

[6] = test system: Escherichia coli K-12 J5R 11-2; experiment: as above; assay type: cell-based; conditions: K12J5R112, 37° C., 18 hours incubation
From the text: as §1, §2

[7] = test system: Micrococcus flavus FDA 16; experiment: as above; assay type: cell-based; conditions: FDA16, nutrient agar, 37° C., 18 hours incubation, read-out: MIC
[8] = test system: Staphylococcus aureus 209P; experiment: as above; assay type: cell-based; conditions: 37° C., 18 hours incubation
Proteus rettgeri GN311 = experiment: as above; assay type: cell-based; conditions: Providencia rettgeri, 37° C., 18 hours incubation
[9] = test system: Escherichia coli K-12 LA 290 R55; experiment: as above; assay type: cell-based; conditions: K12LA290R55, 18 h
[10] = test system: Bacillus subtilis NRRL B-558; experiment: as above; assay type: cell-based; conditions: NRRLB558, 37° C., 18 hours incubation
[11] = test system: Mycobacterium smegmatis ATCC 607; experiment: as above; assay type: cell-based; conditions: Mycolicibacterium smegmatis, ATCC607; nutrient agar, 37° C., 18 hours incubation; read-out: MIC
[12] = test system: Escherichia coli K-12 LA 290 R64; experiment: as above; assay type: cell-based; conditions: K12LA290R64, 18 h
Proteus rettgeri GN466 = experiment: as above; assay type: cell-based; conditions: Providencia rettgeri, GN466, 18 h
Escherichia coli W677 = experiment: as above; assay type: cell-based; conditions: W677, nutrient agar, 37° C., 18 hours incubation, read-out: MIC
[13] = test system: Klebsiella pneumoniae 22 #3038; experiment: as above; assay type: cell-based; conditions: 18 h
[14] = test system: Pseudomonas aeruginosa K-Ps102; experiment: as above; assay type: cell-based
[15] = test system: Escherichia coli K-12 ML 1629; experiment: as above; assay type: cell-based; conditions: K12ML1629, nutrient agar, 37° C., 18 hours incubation, read-out: MIC
Serratia marcescens = experiment: as above; assay type: cell-based; conditions: 37° C., 18 hours incubation
Escherichia coli K-12 R5 = experiment: as above; assay type: cell-based; conditions: K12R5, 18 h
[16] = test system: Pseudomonas aeruginosa GN315; experiment: as above; assay type: cell-based; conditions: GN315, nutrient agar, 37° C., 18 hours incubation, read-out: MIC
[17] = test system: Pseudomonas aeruginosa ROS134/PU21; experiment: as above; assay type: cell-based; conditions: ROS134/PU21, 18 h
[18] = test system: Klebsiella pneumoniae PCI 602; experiment: as above; assay type: cell-based; conditions: PCI602, nutrient agar, 37° C., 18 hours incubation, read-out: MIC
Providencia 2991 = experiment: as above; assay type: cell-based; conditions: 37° C., 18 hours incubation
[19] = test system: Pseudomonas aeruginosa No. 12; experiment: as above; assay type: cell-based
Escherichia coli JR255 = experiment: as above; assay type: cell-based; conditions: JR255, nutrient agar, 37° C., 18 hours incubation, read-out: MIC
[20] = Acute toxicity by intravenous injection in mice; conditions: mouse, in vivo
[21] = test system: Escherichia coli K-12 R 388; experiment: Minimum inhibitory concentration, serial dilution on nutrient agar; assay type: cell-based; conditions: K12R388, 18 h
[22] = test system: Pseudomonas aeruginosa B-13; experiment: as above; assay type: cell-based; conditions: B13, 37° C., 18 hours incubation

SMILES	MIC [1] [µg/mL]	MIC [2] [µg/mL]	MIC [3] [µg/mL]	MIC [4] [µg/mL]	MIC [5] [µg/mL]	MIC (Shigella sonnei JS11746) [µg/mL]	MIC [6] [µg/mL]	MIC [7] [µg/mL]	MIC [8] [µg/mL]	MIC (Proteus rettgeri GN311) [µg/mL]	MIC [9] [µg/mL]	MIC [10] [µg/mL]	MIC [11] [µg/mL]	MIC [12] [µg/mL]	MIC (Proteus rettgeri GN466) [µg/mL]	MIC (Escherichia coli W677) [µg/mL]	MIC [13] [µg/mL]	MIC [15] [µg/mL]	MIC (Serratia marcescens) [µg/mL]	MIC (Escherichia coli K-12 R5) [µg/mL]	further results
C[C@H]1O[C@H](O[C@@H]2C[C@H](O[C@H]3O[C@H](CN)CC[C@H]3N)[C@@H](N)C[C@H]2NC(=O)[C@@H](O)CCN)[C@H](O)[C@@H](N)[C@@H]1O [AHB-tetradeoxyKMB, 1-N-[(S)-4-amino-2-hydroxybutyryl]-5,3',4',6"-tetradeoxykanamycin B]	12.5 (≈ 24 µM)	> 100	1.56 (≈ 3 µM)	1.56 (≈ 3 µM)	0.78 (≈ 1.5 µM)	3.13 (≈ 6.01 µM)	0.78 (≈ 1.5 µM)	6.25 (≈ 12 µM)	< 0.2	25 (≈ 48 µM)	1.56 (≈ 3 µM)	< 0.2	< 0.2	0.78 (≈ 1.5 µM)	1.56 (≈ 3 µM)	0.78 (≈ 1.5 µM)	1.56 (≈ 3 µM)	0.78 (≈ 1.5 µM)	25 (≈ 48 µM)	50 (≈ 96 µM)	MIC ([14]; KPS102, 18 h): 3.13 µg/mL (≈ 6.01 µM); MIC [16]: 100 µg/mL (≈ 192 µM); MIC [17]: 100 µg/mL (≈ 192 µM); MIC [18]: 0.78 µg/mL (≈ 1.5 µM); MIC (Providencia 2991): 25 µg/mL (≈ 48 µM); MIC ([19]; NO.12, nutrient agar, 37° C., 18 hours incubation, read-out: MIC): 6.25 µg/mL (≈ 12 µM); MIC (Escherichia coli JR255): 0.78 µg/mL (≈ 1.5 µM); LD50 [20]: 25 to 50 mg/kg; MIC [21]: 0.39 µg/mL (≈ 0.749 µM); MIC [22]: 12.5 µg/mL (≈ 24 µM)
NCC[C@H](O)C(=O)N[C@@H]1C[C@H](N)[C@@H](O[C@H]2O[C@H](CN)CC[C@H]2N)C[C@H]1O[C@H]1O[C@H](CO)[C@@H](O)[C@H](N)[C@H]1O [AHB-trideoxyKMB, 1-N-[(S)-4-amino-2-hydroxybutyryl]-5,3',4'-trideoxykanamycin B]	6.25 (≈ 11.6 µM)	> 100	3.13 (≈ 5.83 µM)	1.56 (≈ 2.91 µM)	0.78 (≈ 1.45 µM)	3.13 (≈ 5.83 µM)	0.78 (≈ 1.45 µM)	1.56 (≈ 2.91 µM)	< 0.2	25 (≈ 46.6 µM)	3.13 (≈ 5.83 µM)	< 0.2	0.2 (≈ 0.373 µM)	0.78 (≈ 1.45 µM)	3.13 (≈ 5.83 µM)	0.78 (≈ 1.45 µM)	3.13 (≈ 5.83 µM)	1.56 (≈ 2.91 µM)	25 (≈ 46.6 µM)	100 (≈ 186 µM)	MIC ([14]; KPS102, nutrient agar, 37° C., 18 hours incubation, read-out: MIC): 1.56 µg/mL (≈ 2.91 µM); MIC [16]: 25 µg/mL (≈ 46.6 µM); MIC [17]: > 100 µg/mL; MIC [18]: 0.78 µg/mL (≈ 1.45 µM); MIC (Providencia 2991): 6.25 µg/mL (≈ 11.6 µM); MIC ([19]; NO.12, 18 h): 3.13 µg/mL (≈ 5.83 µM); MIC (Escherichia coli JR255): 0.39 µg/mL (≈ 0.727 µM); LD50 [20]: 25 to 50 mg/kg; MIC [21]: 0.78 µg/mL (≈ 1.45 µM); MIC [22]: 6.25 µg/mL (≈ 11.6 µM)
